Series [1] relates to patients undergoing a laparoscopic hysterectomy. Nature of the series: Phase 2 double-randomized placebo-controlled trial, CR845 dosed preoperatively and postoperatively, analgesic efficacy. In kind it is in vivo, human. As for the experimental part:
This trial was a phase 2 multi-center, double-randomized, double-blind, placebo-controlled study was conducted to evaluate the analgesic efficacy and safety of intravenous CR845 dosed preoperatively and postoperatively in patients undergoing a laparoscopic hysterectomy. The trial was conducted under an investigational new drug application (IND) filed with the US Food and Drug Administration (FDA).
This phase 2 trial multi-center, double-randomized, double-blind, placebo-controlled study was conducted in 22 sites in the United States. All clinical procedures were approved by the relevant Institutional Review Board (IRB) in compliance with the applicable laws and regulations of the US. The study was initiated up to fourteen (14) days preoperatively and the in-hospital period was approximately twenty-four (24) hours for each patient and follow up was conducted within seven (7) days of discharge from the hospital.
The aim of this clinical trial was to evaluate the analgesic efficacy and safety of intravenous (IV) CR845 dosed preoperatively and postoperatively in female patients undergoing an elective laparoscopic hysterectomy. Secondary objectives were: 1. […] To evaluate the safety and tolerability of CR845.
This Phase 2, double-randomized, double-blind, placebo-controlled, parallel group study was conducted in approximately 200 female subjects, aged 18 to 65, across 22 US clinical sites. All subjects were administered a 15-minute IV infusion of 0.04 mg/kg CR845 or matching placebo before surgery in a 1:1 ratio. After surgery and upon reaching a pain intensity baseline level of at least 4 on a 10 cm visual analog scale (VAS), subjects were also re-randomized in a 1:1 ratio to receive a second IV infusion of either 0.04 mg/kg of CR845 or placebo. All doubly-randomized patients were thereby randomized to receive one of four possible treatment regimens: placebo-placebo, placebo-CR845, CR845-placebo, or CR845-CR845 (See FIG. 1). Pain intensity and pain relief scores were assessed up to 24 hours following the post-surgery infusion. Patients were allowed IV morphine for rescue at any point during the post-operative period, if requested.
The main efficacy endpoints were the total morphine consumption in the first 24 hours in patients who were re-randomized in the postoperative period and the efficacy of CR845 in reducing pain intensity including time specific VAS difference; summed pain intensity differences (SPIDs); area under the curve (AUC); pain relief; and the proportion of patients that were randomized to receive preoperative CR845 with no rescue medication postoperatively. The safety endpoints included the incidence of adverse events, physical examination, vital signs, 12-lead ECG, clinical laboratory evaluations, and cumulative fluid balance.

Series [2] concerns patients post laparoscopic surgery. Nature of the series: Adverse events in subjects treated with CR845 or placebo, Phase IIb trial. In kind it is in vivo, human. Particulars: first 24 hours post laparoscopic surgery; all CR845 treated groups; FIG. 15. As to the method: Data are from a Phase IIb clinical trial in which subjects were administered CR845 or placebo. Generalized pruritus was distinguished from local pruritus events and shown separately in FIG. 15. Adverse events were lower in all CR845 treated patient groups as compared with placebo treated patients.

Series [3] concerns women after laparoscopic-assisted hysterectomy. Particulars: cited from earlier work.

SMILES strings stand for the structures.

Turning to `CC(C)C[C@@H](NC(=O)[C@@H](Cc1ccccc1)NC(=O)[C@H](N)Cc1ccccc1)C(=O)N[C@H](CCCCN)C(=O)N1CCC(N)(C(=O)O)CC1` [CR845, D-Phe-D-Phe-D-Leu-D-Lys-[ω(4-aminopiperidine-4-carboxylic acid)]-OH], in series [1] (CR845-CR845 (0.04 mg/kg IV before and after surgery), first 24 hours, FIG. 2), the “Reduction in summed pain intensity difference (SPID) pain score versus placebo only” value was “more than twice the reduction”. Also, in series [1] (CR845-CR845 (before and after surgery), over 24 hours, FIG. 3), the “Reduction in pain intensity difference (PID) pain score versus placebo only” value is on record as “twice the reduction”. Moreover, the “Pain relief as judged by PID score” value in series [1] (CR845 before and after surgery, among four groups) is listed as “highest pain intensity difference”. Moreover, the “Patients' overall evaluation of pain relief as excellent” value in series [1] (CR845 pretreatment groups (CR845-CR845, CR845-Placebo, CR845-None)) was “highest percentage of patients”. Also, the “Reduction in pain SPID scores” value in series [1] (one dose of CR845, before or after surgery, first 24 hours, FIG. 2) is on record as “intermediate level of reduction”. In series [1] (one dose of CR845, before or after surgery, first 24 hours, FIG. 3), the “Reduction in pain PID scores” value is reported as “intermediate level of reduction”. Also, in series [1] (two doses of CR845, intervals 2-4, 4-12 and 12-24 hours post surgery, FIG. 4), the “Morphine self-administered by the patients” value is on record as “least morphine”. The “Adverse events (nausea, vomiting and pruritus) compared with placebo” value in series [2] is “lower”. For the same molecule, the “Reduction of morphine use versus placebo” value in series [3] (0.04 mg/kg 15-minute IV infusion after surgery, first 16 hours post-infusion) is recorded as 32%. The “Opioid side effects (vomiting, nausea and pruritis)” value in series [3] (0.04 mg/kg IV after surgery, versus placebo) was “significant reduction”. Also, in series [3] (0.04 mg/kg IV after surgery), the “Changes in clinical lab test results, vital signs, electrocardiograms, Ramsey sedation scale” value is reported as “no significant changes”. For the same molecule, in series [3] (administered after surgery), the “Reduction of pain intensity” value was “effective”; the Safety and tolerability entry was “safe and well tolerated”. Also, in series [3] (single intravenous dose after surgery), the “Tolerability in comparison to other known kappa agonists” value is given as “better tolerated”.

These data come from patent publication US20150150935A1, “[…] RECEPTOR AGONISTS FOR REDUCING PAIN AND INFLAMMATION” (CARA THERAPEUTICS, INC., priority 2012, published 2015).
